Measured values taken from US20250051277A1, “DELIVERY OF THERAPEUTIC ALKALOID COMPOUNDS” (Sensorium Therapeutics, Inc., priority 2021, published 2025).
Where two headings read alike, the source gives them in different places.

Legend:
[1] = type: physicochemical; settings: SGF with pepsin, pH 1.5, 37° C., 0.5 mM
[2] = type: physicochemical; settings: DI water, 25° C., 0.5 mM
[3] = Plasma Stability Assay of Example A3, mouse plasma; settings: 5 μM, 37° C., % of prodrug compound remaining
[4] = Plasma Stability Assay of Example A3, human plasma; settings: 5 μM, 37° C., % of prodrug compound remaining
[5] = 5 μM
[6] = 10 μM
[7] = 10 μM; remark: listed apart in the source

SMILES	Mouse Plasma Prodrug (%) ([3]; 0 min)	Mouse Plasma Prodrug (%) ([3]; 15 min)	Mouse Plasma Prodrug (%) ([3]; 60 min)	Mouse Plasma Prodrug (%) ([3]; 120 min)	Mouse Plasma Prodrug (%) ([3]; 240 min)	Human Plasma Prodrug (%) ([4]; 0 min)	Human Plasma Prodrug (%) ([4]; 15 min)	Human Plasma Prodrug (%) ([4]; 30 min)	Human Plasma Prodrug (%) ([4]; 60 min)	Human Plasma Prodrug (%) ([4]; 120 min)	Human Plasma Prodrug (%) ([4]; 240 min)	Mouse Plasma Compound 001 (%) ([5]; 15 min)	Mouse Plasma Compound 001 (%) ([5]; 30 min)	Mouse Plasma Compound 001 (%) ([5]; 60 min)	Mouse Plasma Compound 001 (%) ([5]; 120 min)	Mouse Plasma Compound 001 (%) ([5]; 240 min)	Mouse Plasma Prodrug (%) ([3]; 30 min)	Mouse Plasma Compound 001 (%) ([5]; 0 min)	also measured
COc1ccc([C@@]23CCC(OC(=O)C(c4ccccc4)c4ccccc4)=C[C@@H]2N(C)CC3)cc1OC [Compound 306, [(3aS,7aS)-3a-(3,4-dimethoxyphenyl)-1-methyl-3,4,5,7a-tetrahydro-2H-indol-6-yl]2,2-diphenylacetate]	100.0	6.2	1.6	0.4	0.1	100.0	89.5	75.2	53.7	32.4	13.8								Condition 1 Conversion (%) ([1]; time 1 min): 0%; Condition 1 Conversion (%) ([1]; time 5 min): 0%; Condition 1 Conversion (%) ([1]; time 30 min): 0%; Condition 1 Conversion (%) ([1]; time 1 h): 0%; Condition 1 Conversion (%) ([1]; time 4 h): 0%; Condition 1 Conversion (%) ([1]; time 24 h): 0%; Condition 2 Conversion (%) ([2]; time 1 min): 0%; Condition 2 Conversion (%) ([2]; time 5 min): 0%; Condition 2 Conversion (%) ([2]; time 30 min): 0%; Condition 2 Conversion (%) ([2]; time 1 h): 0%; Condition 2 Conversion (%) ([2]; time 4 h): 0%; Condition 2 Conversion (%) ([2]; time 24 h): 0%
COc1ccc([C@@]23CCC(OC(=O)c4cccc(N(C)C)c4)=C[C@@H]2N(C)CC3)cc1OC [Compound 307, [(3aS,7aS)-3a-(3,4-dimethoxyphenyl)-1-methyl-3,4,5,7a-tetrahydro-2H-indol-6-yl]3-(dimethylamino)benzoate]	100.0	18.1	0.1	0.0	0.0	100.0	88.5	87.6	83.0	71.1	57.5	73.4	81.1	86.3	79.9	79.0	3.8		
COc1ccc([C@@]23CCC(OC(=O)c4ccc(C(F)(F)F)cc4)=C[C@@H]2N(C)CC3)cc1OC [Compound 310]	100.0	0.4	0.1	0.1	0.1	100.0	89.9	84.5	77.3	63.4	35.1						0.1		
COc1ccc([C@@]23CCC(OC(=O)c4ccc(F)cc4)=C[C@@H]2N(C)CC3)cc1OC [Compound 353, (3aS,7aS)-3a-(3,4-dimethoxyphenyl)-1-methyl-2,3,3a,4,5,7a-hexahydro-1H-indol-6-yl4-fluorobenzoate]	100	0	0	0	0	100	95.4	90.1	79.7	55.3	39.6	55	51.6	50.6	46.4	29.3	0	47.7	
COc1ccc([C@@]23CCC(OC(=O)c4ccc(C#N)cc4)=C[C@@H]2N(C)CC3)cc1OC [Compound 354, (3aS,7aS)-3a-(3,4-dimethoxyphenyl)-1-methyl-2,3,3a,4,5,7a-hexahydro-1H-indol-6-yl4-cyanobenzoate]	100	5	5	4	0	100	93	72	42	13	1	32.79	32.69	29.45	27.14	20.12	7	33.27	
COc1ccc([C@@]23CCC(OC(=O)c4cccc(C(C)(C)C)c4)=C[C@@H]2N(C)CC3)cc1OC [Compound 375, (3aS,7aS)-3a-(3,4-dimethoxyphenyl)-1-methyl-2,3,3a,4,5,7a-hexahydro-1H-indol-6-yl3-(tert-butyl)benzoate]	100	11	0	0	0	100	>99	>99	97	57	26	45.54	45.99	41.28	42.28	29.74	2	41.82	
CCC(C)(CC)C(=O)OC1=C[C@@H]2N(C)CC[C@]2(c2ccc(OC)c(OC)c2)CC1 [Compound 430, (3aS,7aS)-3a-(3,4-dimethoxyphenyl)-1-methyl-2,3,3a,4,5,7a-hexahydro-1H-indol-6-yl2-ethyl-2-methylbutanoate]																			Prodrug (%) remaining, Rat Plasma ([6]; 0 h): 100.0%; Prodrug (%) remaining, Rat Plasma ([6]; 10 min): 98.2%; Prodrug (%) remaining, Rat Plasma ([6]; 0.5 h): 98.3%; Prodrug (%) remaining, Rat Plasma ([6]; 1 h): 97.1%; Prodrug (%) remaining, Rat Plasma ([6]; 2 h): 94.1%; Prodrug (%) remaining, Rat Plasma ([6]; 4 h): 92.8%; Prodrug (%) remaining, Human Plasma ([7]; 0 h): 100.0%; Prodrug (%) remaining, Human Plasma ([7]; 10 min): >99%; Prodrug (%) remaining, Human Plasma ([7]; 0.5 h): >99%; Prodrug (%) remaining, Human Plasma ([7]; 1 h): >99%; Prodrug (%) remaining, Human Plasma ([7]; 2 h): >99%; Prodrug (%) remaining, Human Plasma ([7]; 4 h): 95.9%
COc1ccc([C@@]23CCC(OC(=O)CC(C)(C)C)=C[C@@H]2N(C)CC3)cc1OC [Compound 431, (3aS,7aS)-3a-(3,4-dimethoxyphenyl)-1-methyl-2,3,3a,4,5,7a-hexahydro-1H-indol-6-yl3,3-dimethylbutanoate]																			Prodrug (%) remaining, Rat Plasma ([6]; 0 h): 100.0%; Prodrug (%) remaining, Rat Plasma ([6]; 10 min): 74.5%; Prodrug (%) remaining, Rat Plasma ([6]; 0.5 h): 45.7%; Prodrug (%) remaining, Rat Plasma ([6]; 1 h): 16.5%; Prodrug (%) remaining, Rat Plasma ([6]; 2 h): 2.3%; Prodrug (%) remaining, Rat Plasma ([6]; 4 h): 0.2%; Prodrug (%) remaining, Human Plasma ([7]; 0 h): 100.0%; Prodrug (%) remaining, Human Plasma ([7]; 10 min): 82.1%; Prodrug (%) remaining, Human Plasma ([7]; 0.5 h): 69.0%; Prodrug (%) remaining, Human Plasma ([7]; 1 h): 62.8%; Prodrug (%) remaining, Human Plasma ([7]; 2 h): 52.6%; Prodrug (%) remaining, Human Plasma ([7]; 4 h): 37.4%
